Results reported in patent publication US10420753B2, “Combination therapies for treatment of spinal muscular atrophy” (Indiana University Research and Technology Corporation, priority 2016, dated 2019).

Tests used:
[1] = test system: SMN2 reporter (SMN2-luciferase) in HEK293 cells; assay: SMN2-luciferase reporter assay; assay type: cell-based, human; design: % Activation: concentration or dose not given beside the values; conditions: for EC50: Homo sapiens, HEK293; for % Activation: percentage increase over basal expression in DMSO control wells
Experimental: (§1) In this high throughput screening assay, the SMN promoter was combined with exons 1-6 and an exon 7 splicing cassette in a single construct that should respond to compounds that increase SMN transcription, exon 7 inclusion, or that might stabilize the SMN RNA or protein. A stable clonal HEK293 cell line that expresses the SMN2 reporter was isolated. Particularly, cells were incubated at 37° C. with 5% CO2. HEK-293 cells were cultured in D-MEM (Gibco 11995) with 10% fetal bovine serum (FBS; Atlas) and 1× pen-strep (Gibco 15140). Reporter cell lines containing SMN1, SMN2, or SV40 driven firefly luciferase reporters and a control (renilla luciferase reporter) were selected and maintained in D-MEM with 10% FBS and 1× pen-strep with 200 μg/mL hygromycin B (Invitrogen 10687-010). 3813 and 3814 fibroblasts were cultured in D-MEM (Gibco 11995) with 10% fetal bovine serum (FBS; Atlas) and 1× pen-strep (Gibco 15140).
The HEK293 reporter cell lines were then plated at 50,000 cells per well in 96-well plates and incubated overnight. […] The final DMSO concentration was 0.1%. Luciferase activity was assayed with either SteadyGlo (Promega E2510) or DualGlo (Promega E2920) luciferase using the Pherastar FS (BMG Labtech) plate reader. For detailed assay conditions, see Table 4. All data points were transformed from light units to percentage increase over basal expression in the treated control wells (DMSO concentration as appropriate, usually 0.1%) and expressed as percent activation (FIG. 1A). […]

[2] = test system: total SMN protein in brain extracts; assay: Brain SMN protein in treated mice, Western blot; assay type: in vivo; conditions: once daily subcutaneous or oral for 5 days from PND2, tissues PND7, dose-dependent
Experimental: Animals were treated once daily (subcutaneous injection or oral) for 5 days, starting on postnatal day 2 (PND) with increasing doses of 291-88-1. On PND7, mice were sacrificed and tissues were harvested. Tissues were harvested from treated animals on PND 7 and compared to tissues from non-transgenic control mice (FVB) and VH (vehicle: PEG:PBS 50:50) treated animals. Brain extracts were assayed for total SMN protein in comparison to the housekeeping genes, actin and GAPDH (FIGS. 14 and 15, respectively). There was a dose-dependent increase in SMN protein levels ranging from 2-3 fold.

renilla luciferase = assay: Renilla luciferase control in cycloheximide experiment; assay type: cell-based; conditions: 10 μM compound plus 10 μM cycloheximide
Experimental: as §1
To investigate the mechanism of action of LDN291-88-1, the HEK293 SMN2 reporter cells were exposed to LDN291-88-1 at a concentration of 10 μM plus 10 μM cycloheximide to block new protein synthesis, or the same concentration of cycloheximide plus DMSO for comparison. Cell lysates were prepared at the times indicated up to 24 hours as in FIGS. 3A & 3B. The amount of SMN-luciferase protein was quantified by luciferase assay and plotted versus time. […]

SMNΔ7 SMA mice = assay: Survival of SMA mice; assay type: in vivo; conditions: 10 mg/kg IP daily
Experimental: Compound 291-88-1 was administered either by intraperitoneal (IP) administration into the SMA mice SMNΔ7 FVB.SMNΔ7; SMN2; Smn (Jackson Laboratories 005025). Daily treatment of SMNΔ7 animals with 10 mg/kg (IP) was continued as long as feasible. The lifespan of treated animals was compared to that of untreated animals and vehicle (VH) treated animals (FIG. 13). VH treated animals included treatment with 40% PEG400+60% (10% HP-β-CD in water). […] Treatment with compound 291-88-1 increased median survival to 18.5 days, p<0.0001.

[3] = test system: SMN protein in patient-derived fibroblasts (3813 cells; SMN1-/-SMN2+/+); assay: SMN protein detection in patient fibroblasts by Western blot; assay type: cell-based, human; conditions: 3813 fibroblasts, 48 hours, dose dependent, relative to DMSO control
Experimental: For detection of SMN protein in patient fibroblasts, 8000 cells per cm^2 were plated 24 hours prior to compound addition. Since SMN is expressed ubiquitously, cells containing even one copy of the human SMN1 gene will mask the effects of compounds on expression from the SMN2 gene. SMN null cells are not viable. The current standard is to use a human cell line derived from a severe SMA patient. The fibroblast strain 3813 is SMN1 null with three copies of SMN2. […] SMN protein levels were analyzed by dose response in quantitative immunoblots with statistical analysis by one-way ANOVA with post-hoc analysis using Dunnett or Bonferroni, as appropriate. […] Quantification of protein was performed with the Fujifilm LAS-4000 Multifunctional Imaging System. The signal intensity was measured for each band on an immunoblot, normalized to the loading control, and the fold increase was determined in relation to the appropriate DMSO-treated control. Treatment of patient-derived fibroblasts (3813 cells; SMN1−/−SMN2+/+) with compound 291-88-1 gave a dose dependent 2-3 fold increase of SMN protein expression as determined by Western blot analysis (FIG. 1B).

Compound	EC50 [1]	% Activation [1]	further results
O=C(Nc1nc2cnc(C(F)(F)F)cc2s1)c1cnsc1 [Compound 324-44-1]	0.38 µM	220%	
O=C(Nc1nc2cnc(C(F)(F)F)cc2o1)c1ccccc1 [Compound 301-62-1]	1.25 µM	80%	
O=C(Nc1nc2ncc(C(F)(F)F)cc2s1)c1cscn1 [Compound 299-9-1]	1.22 µM	154%	
O=C(Nc1nc2ncc(C(F)(F)F)cc2s1)c1ccccn1 [Compound 287-51-1]	1 µM	110%	
O=C(Nc1nc2cnc(C(F)(F)F)cc2s1)c1ccns1 [Compound 324-36-1]	0.064 µM	198%	
O=C(Nc1nc2cnc(C(F)(F)F)cc2s1)c1ccccn1 [Compound 299-15-1]	0.172 µM	169.5%	
O=C(Nc1nc2cnc(C(F)(F)F)cc2s1)c1ccc(F)cc1 [Compound 311-65]	0.612 µM	87.5%	
O=C(Nc1nc2cnc(C(F)(F)F)cc2s1)c1cccnc1 [Compound 299-16-1]	0.154 µM	177%	
Cc1cc(C(=O)Nc2nc3cnc(C(F)(F)F)cc3s2)no1 [Compound 324-33-1]	5.4 µM	110%	
O=C(Nc1nc2cnc(C(F)(F)F)cc2s1)c1cc[nH]n1 [Compound 324-25-1]	2.04 µM	178%	
O=C(Nc1nc2ncc(C(F)(F)F)cc2s1)c1ccccc1 [Compound 287-98-2]	2.3 µM	150%	
O=C(Nc1nc2cnc(C(F)(F)F)cc2s1)c1ccon1 [Compound 299-55-1]	0.245 µM	245%	
O=C(Nc1nc2cnc(C(F)(F)F)cc2s1)c1cnco1 [Compound 299-53-1]	4.4 µM	200%	
O=C(Nc1nc2cnc(C(F)(F)F)cc2s1)c1ccnnc1 [Compound 299-63-1]	11.3 µM	163%	
O=C(Nc1nc2cnc(C(F)(F)F)cc2s1)c1ccno1 [Compound 324-26-1]	0.214 µM	193%	
O=C(Nc1nc2cnc(C(F)(F)F)cc2s1)c1nccs1 [Compound 311-85]	0.163 µM	218%	
O=C(Nc1nc2cnc(C(F)(F)F)cc2s1)c1ncco1 [N-(6-trifluoromethyl)thiazolo[4,5-c]pyridin-2-yl)oxazole-2-carboxamide]	1.3 µM	74%	
O=C(Nc1nc2cnc(C(F)(F)F)cc2s1)c1ccccc1 [Compound 291-88-1]	0.169 µM	216%	increase in SMN protein levels in brain [2]: 2-3 fold; effect on renilla luciferase (renilla luciferase): no effect; maximal increase in SMN-luciferase greater than the DMSO control ([1]; 48 hours, 3 μM): 400%; median survival (SMNΔ7 SMA mice): 18.5 days; increase of SMN protein expression [3]: 2-3 fold
O=C(Nc1nc2cnc(C(F)(F)F)cc2s1)c1cocn1 [Compound 299-54-1]	1.14 µM	208%	
O=C(Nc1nc2cnc(Cl)cc2s1)c1ccccc1 [Compound 299-1-1]	2.02 µM	154%	
O=C(Nc1nc2cnc(C(F)(F)F)cc2s1)c1ccncn1 [Compound 299-73-1]	2.68 µM	162%	
O=C(Nc1nc2cnc(C(F)(F)F)cc2s1)c1cncs1 [Compound 299-93-1]	0.142 µM	140%	
O=C(Nc1nc2cnc(C(F)(F)F)cc2s1)c1cscn1 [Compound 311-84]	0.62 µM	270%	
O=C(Nc1nc2cnc(C(F)(F)F)cc2s1)c1cncnc1 [Compound 301-90-1]	2.7 µM	170%	
O=C(Nc1nc2cnc(C(F)(F)F)cc2s1)c1ccsn1 [Compound 324-48-1]	0.335 µM	210%	
COc1cc2sc(NC(=O)c3ccccc3)nc2cn1 [Compound 324-2-1]	0.675 µM	150%	
O=C(Nc1nc2ncc(C(F)(F)F)cc2s1)c1cncs1 [Compound 299-10-1]	3.2 µM	112%	
